The values below are quoted from earlier work in patent EP2367539B1, “NOVEL COMPOSITION FOR TREATMENT OF ESSENTIAL THROMBOCYTHEMIA” (AOP Orphan Pharmaceuticals AG, priority 2008, dated 2010).

Series [1] has as its system PDE 3. The following applies: compared with anagrelide.
In series [2] the test system is PDE 3.

As for `O=C1NC2=Nc3ccc(Cl)c(Cl)c3CN2C1O` (centres unmarked) [3-hydroxyanagrelide], the “potency as an inhibitor of PDE 3” value in series [1] is recorded as “considerably more potent than anagrelide”.
As to `NC1=Nc2ccc(Cl)c(Cl)c2CN1` [RL 603, 2-amino-5,6-dichloro-3,4-dihydroquinazolone], in series [2], the “platelet reduction and PDE 3 inhibitory activity” value is on record as “lacks these activities”.
